Laboratory results from patent publication US6492330B1, “Antiangiogenic drugs” (National Institute of Immunology, priority 1996, dated 2002).
Non-standard residues stand in square brackets, D forms with d. No end group written: not given here. dPhe(4-Cl) = N[C@H](Cc1ccc(Cl)cc1)C(=O)O; Deg = CCC(N)(CC)C(=O)O; Aib = CC(C)(N)C(=O)O

Tests used:
Assay type in all cases: cell-based
ECV.304 cells = test: MTT assay, inhibition of proliferation of endothelial cells ECV.304; settings: for Percent Inhibition Proliferation: 72 hours (Table 1); for PERCENT INHIBITION OF PROLIFERATION: 72 hours (Table 2)
Description: (§1) 150 μl of medium was added to the wells of a 96-well tissue culture plate (Nunc, Denmark) followed by 30 μl of cell suspension. The plate was left in incubator (37° C., 5% CO2) overnight. Each of the seven peptides of the combination MuJ-7 were added at three molar concentrations of 10^−7M, 10^−8M and 10^−9M. 20 μl of MuJ-7 at three concentrations of N/10, N and 10N was added to marked wells of the 96-well plate. The value of N for each of the individual peptides was 10^−8M for VIP2, BOM1, SP1, VIP3, and SOM2 and 10^−7M for VIP1, and 10^−9M for SOM1. Each concentration was plated in triplicate. 20 μl of medium alone was added to control wells while wells without cells served as blanks. A total volume of 200 μl was ensured in each well and the plate was left in an incubator (37° C., 5% CO2). After 72 hours of incubation an MTT assay was performed and percentage inhibition in proliferation of treated cells was calculated with respect to control cells.
150 μl of medium was added to the wells of a 96-well tissue culture plate (Nunc, Denmark) followed by 30 μl of cell suspension. The plate was left in incubator (37° C., 5% CO2) overnight. Novel peptides shown below were incubated with cells at concentration range of 10^−7 to 10^−9 M (except DT71 at concentration range 10^−8 to 10^−10 M). Each concentration was plated in triplicates. 20 μl of medium alone was added to control wells while wells without cells served as blanks. A total volume of 200 μl was ensured in each well and plate was left in incubator (37° C., 5% CO2). After 72 hours of incubation an MTT assay was performed and percentage inhibition in proliferation of treated cells was calculated with respect to control cells.

[1] = system: endothelial cells ECV.304; test: Migration assay across 8 μm polycarbonate filter transwell inserts; settings: for Percent inhibition in migration: N = 10^−8 M for VIP2, BOM1, SP1, VIP3, SOM2, 10^−7M for VIP1, 10^−9M for SOM1, 24 hours; for PERCENT INHIBITION MIGRATION: analog at optimum concentration −8M, 24 hours (Table 4)
Description: Polycarbonate filter transwell inserts (24 well size) with 8 μm pores (Nunc, Denmark) were used for the migration assay. ECV304 (10^4 cells/200 ul DMEM containing 0.1% BSA) was added to the upper chamber. The lower chamber contained 600 ul of DMEM with 0.1% BSA. Individual peptides of the composition MuJ-7 at six different concentrations each of N/100, N/10, N, 10N, 100N and 1000N were added directly to the upper well and the plate incubated at 37° C. for 24 hours. The cells migrated to the lower chamber were viewed randomly at five different phase-contrast microscopic fields and the total number of cells counted using Video Pro 32 Image Analysis system. Percent inhibition in migration was determined with reference to the Control. Similarly, […] different concentrations of N/100, N/10, N, 10N, 100N and 1000N of MuJ-7 were added directly to the upper well and the plate incubated at 37° C. for 24 hours. The cells migrated to the lower chamber were counted as described above.
Polycarbonate filter trasnwell inserts (24 well size) with 8 μm pores (Nuno, Denmark) were used for the migration assay. ECV304 (10^4 cells/200 ul DMEM containing 0.1% BSA) was added to the upper chamber. The lower chamber contained 600 ul of DMEM with 0.1% BSA. […] The sequence of each of the peptides added are described above. The cells migrated to the lower chamber were viewed randomly at five different phase-contrast microscopic fields and the total number of cells counted using Video Pro 32 Image Analysis system. Percent inhibition in migration was determined with reference to Control. […]

EaHy.926 = test: MTT assay, inhibition of proliferation of endothelial cells EaHy.926; settings: 72 hours
Description: as §1

ECV304 = test: Tube-like-structure (TLS) formation on Matrigel; settings: 24 hours; for Percent inhibition in TLS activity (TLS length): N = 10^−8 M for VIP2, BOM1, SP1, VIP3, SOM2, 10^−7M for VIP1, 10^−9M for SOM1; for INHIBITION OF TUBE LENGTH: peptide −8M
Description: Matrigel (350 ul) was placed into each well of a 24-well culture plate at 4° C. and was allowed to polymerize by incubation at 37° C. for 30 min. ECV304 (1.5×10^4) were seeded on the Matrigel in 500 ul DMEM supplemented with 10% FBS. MuJ-7 at four different concentrations of 0.25×, 0.5×, ×, & 5.0× were added and. the plate incubated at 37° C. for 24 hour. “×” denotes normal concentration of MuJ-7 where molar concentration of individual peptides was 10^−8 M for VIP2, BOM1, SP1, VIP3 and SOM2 and 10^−7 M for VIP1 and 10^−9 M for SOM1. […] Percent inhibition in tube area was determined with reference to untreated cells.
Matrigel (350 ul) was placed into each well of a 24-well culture plate at 4° C. and was allowed to polymerize by incubation at 37° C. for 30 min. ECV304 (1.5×10^4) were seeded on the Matrigel in 500 ul DMEM supplemented with 10% FBS. […] Percent inhibition in tube length was determined with reference to untreated cells.
Matrigel (350 ul) was placed into each well of a 24-well culture plate at 4° C. and was allowed to polymerize by incubation at 37° C. for 30 min. ECV304 (1.5×10^4) were seeded on the Matrigel in 500 ul DMEM supplemented with 10% FBS. Individual peptides of the composition MuJ-7 at three different concentrations each of N/10, N, and 10N were added and the plate incubated at 37° C. for 24 hours. […] Percent inhibition in tube length was determined with reference to Control. Similarly, three different concentrations of N/10, N, and 10N of MuJ-7 were added to the well and the plate incubated at 37° C. for 24 hours. Percent inhibition in tube length was determined with reference to Control as described previously (Table 10).

Row | Substance | Percent Inhibition Proliferation (ECV.304 cells; ECV.304, peptide 10^−7M) [%] | Percent Inhibition Proliferation (ECV.304 cells; ECV.304, peptide 10^−8M) [%] | Percent Inhibition Proliferation (ECV.304 cells; ECV.304, peptide 10^−9M) [%] | Percent inhibition in migration ([1]; 10N) [%] | Percent inhibition in migration ([1]; 100N) [%] | Percent inhibition in migration ([1]; 1000N) [%] | Percent inhibition in migration ([1]; N/10) [%] | Percent inhibition in migration ([1]; N/100) [%] | Percent inhibition in migration ([1]; N) [%] | Percent Inhibition Proliferation (EaHy.926; EaHy.926, peptide 10^−7M) [%] | Percent Inhibition Proliferation (EaHy.926; EaHy.926, peptide 10^−8M) [%] | Percent Inhibition Proliferation (EaHy.926; EaHy.926, peptide 10^−9M) [%] | Percent inhibition in TLS activity (TLS length) (ECV304; 10N) [%] | Percent inhibition in TLS activity (TLS length) (ECV304; N/10) [%] | Percent inhibition in TLS activity (TLS length) (ECV304; N) [%] | PERCENT INHIBITION OF PROLIFERATION (ECV.304 cells; ECV304, 10^−7M) [%] | PERCENT INHIBITION OF PROLIFERATION (ECV.304 cells; ECV304, 10^−8M) [%] | PERCENT INHIBITION OF PROLIFERATION (ECV.304 cells; ECV304, 10^−9M) [%] | PERCENT INHIBITION MIGRATION [1] [%] | INHIBITION OF TUBE LENGTH (ECV304) [%]
1 | KPRRPYTDNYTRLRKQMAVKKYLNSILN-NH2 [VIP1] | 15 | 17 | 16 | 62.60 | 66.52 | 0.00 | 52.60 | 37.53 | 69.40 | 25 | 24 | 23 | – | – | – | – | – | – | – | –
2 | [dR]PKP[dF]Q[dW]F[dW]LL-NH2 [SP1] | 18 | 24 | 22 | 92.65 | 78.10 | 18.10 | 94.10 | 13.97 | 90.50 | 49 | 32 | 37 | 3.0 | 14.4 | 8.9 | – | – | – | – | –
3 | LMYPTYLK [VIP2] | 24 | 25 | 22 | 88.15 | 92.90 | 0.00 | 91.75 | 0.00 | 89.05 | 32 | 28 | 42 | 3.3 | 0.0 | 1.0 | – | – | – | – | –
4 | D-Phe-Cys-Tyr-D-Trp-Om-Thr-Pen-Thr-NH2 [SOM1] | 20 | 20 | 19 | 88.75 | 73.73 | 25.00 | 78.50 | 84.27 | 88.11 | 36 | 36 | 22 | – | – | – | – | – | – | – | –
5 | His-Ser-Asp-Ala-Val-4-Cl-D-Phe-Thr-Asp-Asn-Tyr-Thr-Arg-Leu-Arg-Lys-Gln-Leu-Ala-Val-Lys-Lys-Tyr-Leu-Asn-Ser-Ile-Leu-Asn-NH2 (HSDAV[dPhe(4-Cl)]TDNYTRLRKQLAVKKYLNSILN-NH2; N-terminus assumed; SMILES CC[C@H](C)[C@H](NC(=O)[C@H](CO)NC(=O)[C@H](CC(N)=O)NC(=O)[C@H](CC(C)C)NC(=O)[C@H](Cc1ccc(O)cc1)NC(=O)[C@H](CCCCN)NC(=O)[C@H](CCCCN)NC(=O)[C@@H](NC(=O)[C@H](C)NC(=O)[C@H](CC(C)C)NC(=O)[C@H](CCC(N)=O)NC(=O)[C@H](CCCCN)NC(=O)[C@H](CCCNC(=N)N)NC(=O)[C@H](CC(C)C)NC(=O)[C@H](CCCNC(=N)N)NC(=O)[C@@H](NC(=O)[C@H](Cc1ccc(O)cc1)NC(=O)[C@H](CC(N)=O)NC(=O)[C@H](CC(=O)O)NC(=O)[C@@H](NC(=O)[C@@H](Cc1ccc(Cl)cc1)NC(=O)[C@@H](NC(=O)[C@H](C)NC(=O)[C@H](CC(=O)O)NC(=O)[C@H](CO)NC(=O)[C@@H](N)Cc1c[nH]cn1)C(C)C)[C@@H](C)O)[C@@H](C)O)C(C)C)C(=O)N[C@@H](CC(C)C)C(=O)N[C@@H](CC(N)=O)C(N)=O) [VIP3] | 21 | 25 | 22 | 23.90 | 11.62 | 0.00 | 32.80 | 0.00 | 92.45 | 21 | 9 | 24 | – | – | – | – | – | – | – | –
6 | D-Leu-Met-Tyr-Pro-Thr-Tyr-Deg-Lys-OH ([dL]MYPTY[Deg]K-OH; N-terminus assumed; SMILES CCC(CC)(NC(=O)[C@H](Cc1ccc(O)cc1)NC(=O)[C@@H](NC(=O)[C@@H]1CCCN1C(=O)[C@H](Cc1ccc(O)cc1)NC(=O)[C@H](CCSC)NC(=O)[C@H](N)CC(C)C)[C@@H](C)O)C(=O)N[C@@H](CCCCN)C(=O)O) [DT-19] | – | – | – | – | – | – | – | – | – | – | – | – | – | – | – | 11.9 | 7.3 | 21.0 | 80.4 | 37.8
7 | D-Leu-Met-Tyr-Pro-Thr-Tyr-Aib-Lys-OH ([dL]MYPTY[Aib]K-OH; N-terminus assumed; SMILES CSCC[C@H](NC(=O)[C@H](N)CC(C)C)C(=O)N[C@@H](Cc1ccc(O)cc1)C(=O)N1CCC[C@H]1C(=O)N[C@H](C(=O)N[C@@H](Cc1ccc(O)cc1)C(=O)NC(C)(C)C(=O)N[C@@H](CCCCN)C(=O)O)[C@@H](C)O) [DT-12] | – | – | – | – | – | – | – | – | – | – | – | – | – | – | – | 20.3 | 16.1 | 15.5 | 58.7 | 17.1
